Reference: PubChem BioAssay AID2060894 (Molecular Pharmacology Branch, DTP, NCI, 2025)
Blank lines part the entries; values can stand above or below the compound they belong to.

Test system: K12877-001-R-J1-PDC complex spheroid viability
Test: Anticancer human tumor K12877-001-R-J1-PDC patient-derived lung adenocarcinoma cell line growth inhibition [RAS]
Conditions: for IC50: curve of first compound; for viability, T/C: stronger effect = lower value
Procedure, shortened: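 Tumour cells grown as complex spheroids with HUVEC endothelial cells and mesenchymal stem cells, treated with RAS pathway inhibitor combinations. Each agent spans half-log steps from near clinical Cmax, or 10 microM where Cmax is unknown.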

[1] = second compound 0.0316 µM, first compound 0.0316 µM
[2] = second compound 0.0316 µM, first compound 0.1 µM
[3] = second compound 0.0316 µM, first compound 0.316 µM
[4] = second compound 0.0316 µM, first compound 1 µM
[5] = second compound 0.1 µM, first compound 0.0316 µM
[6] = second compound 0.1 µM, first compound 0.1 µM
[7] = second compound 0.1 µM, first compound 0.316 µM
[8] = second compound 0.1 µM, first compound 1 µM
[9] = second compound 0.316 µM, first compound 0.0316 µM
[10] = second compound 0.316 µM, first compound 0.1 µM
[11] = second compound 0.316 µM, first compound 0.316 µM
[12] = second compound 0.316 µM, first compound 1 µM
[13] = second compound 1 µM, first compound 0.0316 µM
[14] = second compound 1 µM, first compound 0.1 µM
[15] = second compound 1 µM, first compound 0.316 µM
[16] = second compound 1 µM, first compound 1 µM
[17] = second compound 3.16 µM, first compound 0.0316 µM
[18] = second compound 3.16 µM, first compound 0.1 µM
[19] = second compound 3.16 µM, first compound 0.316 µM
[20] = second compound 3.16 µM, first compound 1 µM
[21] = second compound 10 µM, first compound 0.0316 µM
[22] = second compound 10 µM, first compound 0.1 µM
[23] = second compound 10 µM, first compound 0.316 µM
[24] = second compound 10 µM, first compound 1 µM
[25] = second compound 0.0316 µM, first compound 0.000949 µM
[26] = second compound 0.0316 µM, first compound 0.003 µM
[27] = second compound 0.0316 µM, first compound 0.00949 µM
[28] = second compound 0.0316 µM, first compound 0.03 µM
[29] = second compound 0.0316 µM, first compound 0.0949 µM
[30] = second compound 0.0316 µM, first compound 0.3 µM
[31] = second compound 0.1 µM, first compound 0.000949 µM
[32] = second compound 0.1 µM, first compound 0.003 µM
[33] = second compound 0.1 µM, first compound 0.00949 µM
[34] = second compound 0.1 µM, first compound 0.03 µM
[35] = second compound 0.1 µM, first compound 0.0949 µM
[36] = second compound 0.1 µM, first compound 0.3 µM
[37] = second compound 0.316 µM, first compound 0.000949 µM
[38] = second compound 0.316 µM, first compound 0.003 µM
[39] = second compound 0.316 µM, first compound 0.00949 µM
[40] = second compound 0.316 µM, first compound 0.03 µM
[41] = second compound 0.316 µM, first compound 0.0949 µM
[42] = second compound 0.316 µM, first compound 0.3 µM
[43] = second compound 1 µM, first compound 0.000949 µM
[44] = second compound 1 µM, first compound 0.003 µM
[45] = second compound 1 µM, first compound 0.00949 µM
[46] = second compound 1 µM, first compound 0.03 µM
[47] = second compound 1 µM, first compound 0.0949 µM
[48] = second compound 1 µM, first compound 0.3 µM
[49] = second compound 3.16 µM, first compound 0.000949 µM
[50] = second compound 3.16 µM, first compound 0.003 µM
[51] = second compound 3.16 µM, first compound 0.00949 µM
[52] = second compound 3.16 µM, first compound 0.03 µM
[53] = second compound 3.16 µM, first compound 0.0949 µM
[54] = second compound 3.16 µM, first compound 0.3 µM
[55] = second compound 10 µM, first compound 0.000949 µM
[56] = second compound 10 µM, first compound 0.003 µM
[57] = second compound 10 µM, first compound 0.00949 µM
[58] = second compound 10 µM, first compound 0.03 µM
[59] = second compound 10 µM, first compound 0.0949 µM
[60] = second compound 10 µM, first compound 0.3 µM
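Further: spheroids exposed to agents for one week before readout.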
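Wherever viability, T/C is given: tumour cells co-cultured with HUVEC and mesenchymal stem cells in spheroids.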

IC50 (second compound 0.0316 µM): > 1000 nM | IC50 (second compound 0.1 µM): > 1000 nM | IC50 (second compound 0.316 µM): > 1000 nM | IC50 (second compound 1 µM): > 1000 nM | IC50 (second compound 3.16 µM): > 1000 nM | IC50 (second compound 10 µM): > 1000 nM
SMILES: C=CC(=O)N1CCN(c2nc(OCC3CCCN3C)nc3c(F)c(-c4nc(N)cc(C)c4C(F)(F)F)c(Cl)cc23)C(C)C1 (stereo not drawn) + C#Cc1c(F)ccc2cc(O)cc(-c3ncc4c(N5CC6CCC(C5)N6)nc(OCC56CCCN5CC(F)C6)nc4c3F)c12
viability, T/C (second compound 0.0316 µM, first compound 0.00316 µM): 97.7% | viability, T/C (second compound 0.0316 µM, first compound 0.01 µM): 87.3% | viability, T/C [1]: 90.9% | viability, T/C [2]: 79.4% | viability, T/C [3]: 85.3% | viability, T/C [4]: 72.8% | viability, T/C (second compound 0.1 µM, first compound 0.00316 µM): 99.2% | viability, T/C (second compound 0.1 µM, first compound 0.01 µM): 84.5% | viability, T/C [5]: 83.7% | viability, T/C [6]: 78.3% | viability, T/C [7]: 83.8% | viability, T/C [8]: 75.5% | viability, T/C (second compound 0.316 µM, first compound 0.00316 µM): 95.8% | viability, T/C (second compound 0.316 µM, first compound 0.01 µM): 86.2% | viability, T/C [9]: 83.4% | viability, T/C [10]: 89.7% | viability, T/C [11]: 75% | viability, T/C [12]: 81.9% | viability, T/C (second compound 1 µM, first compound 0.00316 µM): 101% | viability, T/C (second compound 1 µM, first compound 0.01 µM): 85.3% | viability, T/C [13]: 77.5% | viability, T/C [14]: 89.8% | viability, T/C [15]: 78.2% | viability, T/C [16]: 77.8% | viability, T/C (second compound 3.16 µM, first compound 0.00316 µM): 106% | viability, T/C (second compound 3.16 µM, first compound 0.01 µM): 92.2% | viability, T/C [17]: 80.7% | viability, T/C [18]: 83.1% | viability, T/C [19]: 85% | viability, T/C [20]: 73.9% | viability, T/C (second compound 10 µM, first compound 0.00316 µM): 94.4% | viability, T/C (second compound 10 µM, first compound 0.01 µM): 87.3% | viability, T/C [21]: 79.1% | viability, T/C [22]: 79.8% | viability, T/C [23]: 78.2% | viability, T/C [24]: 83.2%

IC50 (second compound 0.0316 µM): < 31.6 nM | IC50 (second compound 0.1 µM): < 31.6 nM | IC50 (second compound 0.316 µM): < 31.6 nM | IC50 (second compound 1 µM): < 31.6 nM | IC50 (second compound 3.16 µM): < 31.6 nM | IC50 (second compound 10 µM): < 31.6 nM
SMILES: CC(=O)OC12COC1CC(O)C1(C)C(=O)C(O)C3=C(C)C(OC(=O)C(O)C(NC(=O)OC(C)(C)C)c4ccccc4)CC(O)(C(OC(=O)c4ccccc4)C21)C3(C)C (stereo not drawn) + C#Cc1c(F)ccc2cc(O)cc(-c3ncc4c(N5CC6CCC(C5)N6)nc(OCC56CCCN5CC(F)C6)nc4c3F)c12
viability, T/C [1]: 8.75% | viability, T/C [2]: 6.43% | viability, T/C [3]: 6.63% | viability, T/C [4]: 5.48% | viability, T/C (second compound 0.0316 µM, first compound 3.16 µM): 7.34% | viability, T/C (second compound 0.0316 µM, first compound 10 µM): 14.9% | viability, T/C [5]: 8.48% | viability, T/C [6]: 6.66% | viability, T/C [7]: 4.24% | viability, T/C [8]: 5.34% | viability, T/C (second compound 0.1 µM, first compound 3.16 µM): 6.17% | viability, T/C (second compound 0.1 µM, first compound 10 µM): 16% | viability, T/C [9]: 9.56% | viability, T/C [10]: 6.37% | viability, T/C [11]: 5.39% | viability, T/C [12]: 5.34% | viability, T/C (second compound 0.316 µM, first compound 3.16 µM): 6.63% | viability, T/C (second compound 0.316 µM, first compound 10 µM): 17.3% | viability, T/C [13]: 8.81% | viability, T/C [14]: 6.46% | viability, T/C [15]: 6.04% | viability, T/C [16]: 5.11% | viability, T/C (second compound 1 µM, first compound 3.16 µM): 7.06% | viability, T/C (second compound 1 µM, first compound 10 µM): 18.1% | viability, T/C [17]: 7.54% | viability, T/C [18]: 5.83% | viability, T/C [19]: 4.07% | viability, T/C [20]: 4.99% | viability, T/C (second compound 3.16 µM, first compound 3.16 µM): 6.13% | viability, T/C (second compound 3.16 µM, first compound 10 µM): 15.7% | viability, T/C [21]: 5.58% | viability, T/C [22]: 3.71% | viability, T/C [23]: 4.04% | viability, T/C [24]: 4.11% | viability, T/C (second compound 10 µM, first compound 3.16 µM): 5.73% | viability, T/C (second compound 10 µM, first compound 10 µM): 15.2%

IC50 (second compound 0.0316 µM): 55.5 nM | IC50 (second compound 0.1 µM): 34.6 nM | IC50 (second compound 0.316 µM): 55.9 nM | IC50 (second compound 1 µM): 50.3 nM | IC50 (second compound 3.16 µM): 84.3 nM | IC50 (second compound 10 µM): 187 nM
SMILES: CC1(C)CCC(Nc2ncc(C(F)(F)F)c(-c3c[nH]c4c(P(C)(C)=O)c(C#N)ccc34)n2)CN1 (stereo not drawn) + C#Cc1c(F)ccc2cc(O)cc(-c3ncc4c(N5CC6CCC(C5)N6)nc(OCC56CCCN5CC(F)C6)nc4c3F)c12
viability, T/C [25]: 93.6% | viability, T/C [26]: 83.7% | viability, T/C [27]: 89.6% | viability, T/C [28]: 65.2% | viability, T/C [29]: 37.2% | viability, T/C [30]: 32% | viability, T/C [31]: 97.6% | viability, T/C [32]: 100% | viability, T/C [33]: 83.8% | viability, T/C [34]: 52.3% | viability, T/C [35]: 34.5% | viability, T/C [36]: 29.1% | viability, T/C [37]: 89.9% | viability, T/C [38]: 92% | viability, T/C [39]: 87% | viability, T/C [40]: 63.3% | viability, T/C [41]: 39% | viability, T/C [42]: 32.9% | viability, T/C [43]: 96.9% | viability, T/C [44]: 87.5% | viability, T/C [45]: 104% | viability, T/C [46]: 60.8% | viability, T/C [47]: 40% | viability, T/C [48]: 33.6% | viability, T/C [49]: 100% | viability, T/C [50]: 93.6% | viability, T/C [51]: 86.6% | viability, T/C [52]: 82.5% | viability, T/C [53]: 45.6% | viability, T/C [54]: 39.9% | viability, T/C [55]: 99.8% | viability, T/C [56]: 88.7% | viability, T/C [57]: 73.7% | viability, T/C [58]: 72.9% | viability, T/C [59]: 56.9% | viability, T/C [60]: 44.2%

IC50 (second compound 0.0316 µM): 4.79 nM | IC50 (second compound 0.1 µM): 5.39 nM | IC50 (second compound 0.316 µM): 5.3 nM | IC50 (second compound 1 µM): 5.51 nM | IC50 (second compound 3.16 µM): 5.35 nM | IC50 (second compound 10 µM): 4.74 nM
SMILES: CCc1c2c(nc3ccc(O)cc13)-c1cc3c(c(=O)n1C2)COC(=O)[C@]3(O)CC + C#Cc1c(F)ccc2cc(O)cc(-c3ncc4c(N5CC6CCC(C5)N6)nc(OCC56CCCN5CC(F)C6)nc4c3F)c12
viability, T/C [25]: 109% | viability, T/C [26]: 77.1% | viability, T/C [27]: 10.3% | viability, T/C [28]: 4.77% | viability, T/C [29]: 2.24% | viability, T/C [30]: 0.94% | viability, T/C [31]: 107% | viability, T/C [32]: 89% | viability, T/C [33]: 12.3% | viability, T/C [34]: 4.96% | viability, T/C [35]: 2.8% | viability, T/C [36]: 1.27% | viability, T/C [37]: 89.3% | viability, T/C [38]: 87.6% | viability, T/C [39]: 11.5% | viability, T/C [40]: 4.86% | viability, T/C [41]: 2.49% | viability, T/C [42]: 1.48% | viability, T/C [43]: 86.5% | viability, T/C [44]: 99.4% | viability, T/C [45]: 11.7% | viability, T/C [46]: 9.22% | viability, T/C [47]: 2.66% | viability, T/C [48]: 1.23% | viability, T/C [49]: 95% | viability, T/C [50]: 85.9% | viability, T/C [51]: 14.4% | viability, T/C [52]: 7.59% | viability, T/C [53]: 3.16% | viability, T/C [54]: 2.37% | viability, T/C [55]: 82.9% | viability, T/C [56]: 75.4% | viability, T/C [57]: 11.4% | viability, T/C [58]: 5.12% | viability, T/C [59]: 4.3% | viability, T/C [60]: 1.89%
